In patent US20200060276A1, “THIAZOLE COMPOUND AND HERBICIDE” (OAT Agrio Co., Ltd., priority 2017, published 2020):

Assays:
Format in all cases: in vivo
[1] = test system: Echinochloa crus-galli (L.) P. Beauv. var. formosensis Ohwi; assay: Test for Herbicidal Effect in Flooding Treatment (#1), ECHDG; details: flooding treatment at seeding, dose 2 kg/ha, visual observation on day 21
Procedure, shortened: (§1)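 Visual scores from 0 (<10% inhibition) to 5 (≥90% or complete withering) were taken 21 days after treatment of glasshouse-grown plants. Seeds were sown in soil flooded for 24 h beforehand, and compound was applied dropwise onto the surface at 2 kg/ha as an acetone solution diluted in water with Tween 80.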

Scirpus juncoides = assay: Test for Herbicidal Effect in Flooding Treatment (#1), SCIJU; details: flooding treatment at seeding, dose 2 kg/ha, visual observation on day 21
Procedure, shortened: as §1

Cyperus microiria = assay: Test for Herbicidal Effect in Flooding Treatment (#1), CYMIC; details: flooding treatment at seeding, dose 2 kg/ha, visual observation on day 21
Procedure, shortened: as §1

[2] = test system: Echinochloa crus-galli (L.) P. Beauv. var. formosensis Ohwi; assay: Test for Herbicidal Effect in Flooding Treatment (#2), ECHDG at 2-2.5 leaf stage; details: flooding treatment at 2-2.5 leaf stage, dose 0.2 kg/ha, visual observation on day 21
Procedure, shortened: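 Flooded muddy soil was seeded with the weed, and at 2–2.5 leaf stage compound in acetone/Tween 80 water was dropped on the water surface at 0.2 kg/ha. Plants were kept in a glasshouse and scored visually on day 21 from 0 (<10% growth inhibition) to 5 (≥90% or complete withering).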

SMILES | ECHDG #1 herbicidal effect (growth inhibition grade) [1] | SCIJU #1 herbicidal effect (growth inhibition grade) (Scirpus juncoides) | CYMIC #1 herbicidal effect (growth inhibition grade) (Cyperus microiria) | ECHDG (2-2.5L) #2 herbicidal effect (growth inhibition grade) [2]
CCOc1c(Cl)cc(CS(=O)(=O)c2ncc(Cl)s2)cc1Cl [Compound 1C-106] | 5 (Growth inhibition effect is equal to or greater than 90%, or complete withering is achieved) | 5 (Growth inhibition effect is equal to or greater than 90%, or complete withering is achieved) | 5 (Growth inhibition effect is equal to or greater than 90%, or complete withering is achieved) | 3 (Growth inhibition effect equal to or greater than 50%, and less than 70%)
CCOc1c(C)cc(CS(=O)(=O)c2ncc(Cl)s2)cc1C [Compound 1C-107] | 5 (Growth inhibition effect is equal to or greater than 90%, or complete withering is achieved) | 5 (Growth inhibition effect is equal to or greater than 90%, or complete withering is achieved) | 5 (Growth inhibition effect is equal to or greater than 90%, or complete withering is achieved) | 4 (Growth inhibition effect is equal to or greater than 70%, and less than 90%)
CCOc1c(F)c(F)c(CS(=O)(=O)c2ncc(Cl)s2)c(F)c1F [Compound 1C-108] | 5 (Growth inhibition effect is equal to or greater than 90%, or complete withering is achieved) | 5 (Growth inhibition effect is equal to or greater than 90%, or complete withering is achieved) | 5 (Growth inhibition effect is equal to or greater than 90%, or complete withering is achieved) | 5 (Growth inhibition effect is equal to or greater than 90%, or complete withering is achieved)
CCCOc1cc(F)c(CS(=O)(=O)c2ncc(Cl)s2)c(F)c1 [Compound 1C-109] | 5 (Growth inhibition effect is equal to or greater than 90%, or complete withering is achieved) | 5 (Growth inhibition effect is equal to or greater than 90%, or complete withering is achieved) | 5 (Growth inhibition effect is equal to or greater than 90%, or complete withering is achieved) | 4 (Growth inhibition effect is equal to or greater than 70%, and less than 90%)
CC(C)Oc1cc(F)c(CS(=O)(=O)c2ncc(Cl)s2)c(F)c1 [Compound 1C-111] | 5 (Growth inhibition effect is equal to or greater than 90%, or complete withering is achieved) | 5 (Growth inhibition effect is equal to or greater than 90%, or complete withering is achieved) | 5 (Growth inhibition effect is equal to or greater than 90%, or complete withering is achieved) | 5 (Growth inhibition effect is equal to or greater than 90%, or complete withering is achieved)
CCCCOc1cc(F)c(CS(=O)(=O)c2ncc(Cl)s2)c(F)c1 [Compound 1C-112] | 5 (Growth inhibition effect is equal to or greater than 90%, or complete withering is achieved) | 5 (Growth inhibition effect is equal to or greater than 90%, or complete withering is achieved) | 5 (Growth inhibition effect is equal to or greater than 90%, or complete withering is achieved) | 3 (Growth inhibition effect equal to or greater than 50%, and less than 70%)
CCCCOc1cc(Cl)c(CS(=O)(=O)c2ncc(Cl)s2)c(Cl)c1 [Compound 1C-113] | 5 (Growth inhibition effect is equal to or greater than 90%, or complete withering is achieved) | 5 (Growth inhibition effect is equal to or greater than 90%, or complete withering is achieved) | 5 (Growth inhibition effect is equal to or greater than 90%, or complete withering is achieved) | 5 (Growth inhibition effect is equal to or greater than 90%, or complete withering is achieved)
O=S(=O)(Cc1ccc(OC(F)F)cc1)c1ncc(Cl)s1 [Compound 1C-114] | 5 (Growth inhibition effect is equal to or greater than 90%, or complete withering is achieved) | 5 (Growth inhibition effect is equal to or greater than 90%, or complete withering is achieved) | 5 (Growth inhibition effect is equal to or greater than 90%, or complete withering is achieved) | 1 (Growth inhibition effect is equal to or greater than 10%, and less than 30%)
O=S(=O)(Cc1ccc(OC(F)(F)F)cc1)c1ncc(Cl)s1 [Compound 1C-115] | 5 (Growth inhibition effect is equal to or greater than 90%, or complete withering is achieved) | 5 (Growth inhibition effect is equal to or greater than 90%, or complete withering is achieved) | 5 (Growth inhibition effect is equal to or greater than 90%, or complete withering is achieved) | 1 (Growth inhibition effect is equal to or greater than 10%, and less than 30%)
O=S(=O)(Cc1ccc(OC(F)(F)C(F)F)cc1)c1ncc(Cl)s1 [Compound 1C-116] | 5 (Growth inhibition effect is equal to or greater than 90%, or complete withering is achieved) | 5 (Growth inhibition effect is equal to or greater than 90%, or complete withering is achieved) | 5 (Growth inhibition effect is equal to or greater than 90%, or complete withering is achieved) | 3 (Growth inhibition effect equal to or greater than 50%, and less than 70%)
COCOc1cc(F)c(CS(=O)(=O)c2ncc(Cl)s2)c(F)c1 [Compound 1C-118] | 5 (Growth inhibition effect is equal to or greater than 90%, or complete withering is achieved) | 5 (Growth inhibition effect is equal to or greater than 90%, or complete withering is achieved) | 5 (Growth inhibition effect is equal to or greater than 90%, or complete withering is achieved) | 4 (Growth inhibition effect is equal to or greater than 70%, and less than 90%)
